Source: publication PMC12624955, “Exploring diarylheptanoid derivatives to target LIMK1 as potential agents against colorectal cancer” (Journal of Enzyme Inhibition and Medicinal Chemistry, 2025)
Like-named read-outs stand apart in the source and are kept apart here.

Key:
LIMK1 = molecular target: T1, LIMK1 (Homo sapiens, UniProt P53667); test: LanthaScreen Eu kinase binding assay (SelectScreen), LIMK1 inhibition; settings: for inhibition at 10 µM: compound at 10 μM, average of two replicates, read-out: Inhibition percentage at 10 μM
T1 construct: purchased Thermo Fisher Scientific (SelectScreen Kinase assay service)
T1 sequence (P53667 whole entry): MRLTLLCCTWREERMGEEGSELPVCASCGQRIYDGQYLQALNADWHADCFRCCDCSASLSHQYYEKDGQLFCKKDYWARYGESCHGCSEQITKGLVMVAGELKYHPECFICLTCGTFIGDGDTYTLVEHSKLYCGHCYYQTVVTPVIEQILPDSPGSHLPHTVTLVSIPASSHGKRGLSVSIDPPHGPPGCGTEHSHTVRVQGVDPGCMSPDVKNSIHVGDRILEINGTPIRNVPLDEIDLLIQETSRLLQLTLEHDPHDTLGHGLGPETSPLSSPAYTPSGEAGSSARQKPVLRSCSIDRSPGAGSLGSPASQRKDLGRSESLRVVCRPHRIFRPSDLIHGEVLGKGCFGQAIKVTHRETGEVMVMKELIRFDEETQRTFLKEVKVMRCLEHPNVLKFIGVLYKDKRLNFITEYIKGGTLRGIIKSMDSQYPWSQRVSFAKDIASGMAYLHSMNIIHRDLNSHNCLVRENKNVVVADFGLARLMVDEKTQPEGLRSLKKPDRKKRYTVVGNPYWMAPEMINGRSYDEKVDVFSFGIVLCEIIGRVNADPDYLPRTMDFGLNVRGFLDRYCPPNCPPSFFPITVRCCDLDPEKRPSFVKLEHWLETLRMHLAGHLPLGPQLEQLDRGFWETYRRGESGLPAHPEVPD
Method: The inhibitory activities of the compounds against kinases were tested using the SelectScreen Kinase assay from Thermo Fisher Scientific in Waltham, MA, USA. The LanthaScreen Eu kinase binding assay was used to validate the LIMK1 inhibition activity of the compounds, and was performed according to the manufacturer’s protocol (https://www.thermofisher.com/tw/zt/home/industrial/pharma-biopharma/drug-discovery-development/target-and-lead-identification-and-validation/kinasebiology/kinase-activity-assays/lanthascreentm-eu-kinase-binding-assay/lanthascreen-eu-kinase-binding-assay-validation-table.html). This endpoint assay quantifies inhibitor binding through the displacement of a fluorescently labelled ATP-competitive tracer from LIMK1. A mixture of the 100× compounds, 2× LIMK1/antibody mixture (Eu-anti-His), 4× tracer 236, and kinase buffer were mixed sequentially. After incubation at room temperature for 1 h, the mixture was analysed using a fluorescence plate reader. The kinase inhibition assay results were expressed as the average of two replicates.

LIMK = settings: cited from earlier work
HT-29 [1] = test: Sulforhodamine B assay (cell proliferation); assay type: cell-based; settings: Homo sapiens, SRB assay, 72 h, mean ± SD
Method: (§1) Colorectal cell line, HCT-116, was purchased from the Bioresource Collection and Research Centre (BCRC, Hsinchu, Taiwan), while HT-29 was obtained from the American Type Culture Collection (ATCC, Manassas, VA, USA). Both cell lines were maintained in McCoy’s 5 A medium (with L-glutamine and 2.2 g/L NaHCO3, M4892, Sigma) supplemented with 10% foetal bovine serum (Corning Incorporated, NY, USA) and 1% penicillin–streptomycin–amphotericin B (100 unit/ml penicillin G, 0.1 mg/ml streptomycin sulphate, 0.25 μg/ml amphotericin B, Corning Incorporated, NY, USA). All cultures were maintained in a humidified incubator at 37 °C with 5% CO2.
(§2) Cells were seeded in 96-well plates at a density of 3 × 10^3 cells/well in 100 μl of culture medium and treated with compounds at the indicated concentrations for 72 h. After treatment, cells were fixed with 10% trichloroacetic acid for 20 min and washed with H2O. The cells were then stained with 0.4% sulforhodamine B (SRB) in 1% acetic acid for 20 min, followed by two washes with 1% acetic acid. After the well-dried, the protein-bound dye was dissolved in 100 µl of 10 mM Tris base solution, and the absorbance was measured at 515 nm using an ELISA reader (Molecular Device, Sunnyvale, CA, USA).

HCT-116 [2] = test: Sulforhodamine B assay (cell proliferation); assay type: cell-based
Method: as §1, §2

HT-29 [3] = test: MTT assay (cell viability); assay type: cell-based; settings: Homo sapiens, 72 h, mean ± SD
Method: as §1
(§3) Cells were seeded in 96-well plates at a density of 3 × 10^3 cells/well in 100 μl of culture medium and treated with compounds at the indicated concentrations (0.3, 1, 3, 10, and 30 μM) for 72 h. Following treatment, the 3-(4,5-dimethylthiazol-2-yl)-2,5-diphenyltetrazolium bromide (MTT) solution (5 mg/ml in Phosphate-buffered saline (PBS)) was added to each well to reach a final concentration of 0.5 mg/ml, and the cells were incubated at 37 °C for 1 h. The resulting formazan crystal was dissolved in 100 µl of DMSO, and the absorbance was measured at 550 nm using an ELISA reader (Molecular Device, Sunnyvale, CA, USA).

HCT-116 [4] = test: MTT assay (cell viability); assay type: cell-based; settings: Homo sapiens, 72 h, mean ± SD
Method: as §1, §3

SMILES	inhibition at 10 µM (LIMK1) [%]	also measured
O=C(/C=C/c1ccc(O)c(O)c1)CCCc1ccccc1 [Compound VI]	82	
COc1cc(/C=C/C(=O)CCCCc2ccccc2)ccc1O [XIV]	1	
O=C(/C=C/c1ccc(O)c(O)c1)Cc1ccccc1 [IV]	56	
O=C(/C=C/c1ccc(O)c(Br)c1)CCCCc1ccccc1 [XII]	1	
O=C(/C=C/c1ccc(O)c(O)c1)CCCCc1ccccc1 [Compound I]	101	IC50 (LIMK1): 1590 nM
O=C(/C=C/c1ccc(O)c(O)c1)c1ccccc1 [III]	84	
O=C(/C=C/c1ccc(O)c(Cl)c1)CCCCc1ccccc1 [XI]	4	
COCOc1cccc2c1ccn2CCCCC(=O)/C=C/c1ccc(O)c(O)c1 [Compound 15, (E)-1-(3,4-dihydroxyphenyl)-7-(4-(methoxymethoxy)-1H-indol-1-yl)hept-1-en-3-one]	106	IC50 (LIMK1): 1880 nM
O=C(/C=C/c1ccc(O)c(O)c1)CCCCn1ccc2ccccc21 [Compound 18, (E)-1-(3,4-dihydroxyphenyl)-7-(1H-indol-1-yl)hept-1-en-3-one]	110	IC50 (LIMK1): 1490 nM
O=C(/C=C/c1ccc(O)c(O)c1)CCc1ccccc1 [Compound V]	68	
O=C(CCCCc1ccccc1)CCc1ccc(O)c(O)c1 [II]	30	
O=C(/C=C/c1ccc(O)c([N+](=O)[O-])c1)CCCCc1ccccc1 [XIII]	7	
COc1cc(/C=C/C(=O)CC(=O)/C=C/c2ccc(O)c(OC)c2)ccc1O [curcumin]		IC50 (LIMK): 30 µM
O=C(/C=C/c1ccc(O)c(F)c1)CCCCc1ccccc1 [Compound X]	≤ 0	
O=C(/C=C/c1ccccc1)CCCCc1ccccc1 [Compound VII]	≤ 0	
O=C(/C=C/c1cccc(O)c1)CCCCc1ccccc1 [IX]	≤ 0	
O=C(CCCCn1ccc2ccccc21)CCc1ccc(O)c(O)c1 [Compound 19, 1-(3,4-Dihydroxyphenyl)-7-(1H-indol-1-yl)heptan-3-one]	28	
O=C(/C=C/c1cc(O)c(O)c(O)c1)CCCCc1ccccc1 [Compound XV]	112	IC50 (LIMK1): 570 nM; IC50 (LIMK1; as printed in text): 569 nM; GI50 (HT-29 [1]): 28.8 ± 1.8 µM; GI50 (HCT-116 [2]; Homo sapiens, SRB assay, 72 h, mean ± SD): > 30 µM; growth inhibition of HCT-116 cells (HCT-116 [2]; concentration of 30 µM): did not inhibit the growth; IC50 (HT-29 [3]): > 30 µM; IC50 (HCT-116 [4]): > 30 µM
O=C(/C=C/c1ccc(O)cc1)CCCCc1ccccc1 [VIII]	≤ 0	

Continued, in another order:

inhibition at 10 µM (LIMK1) [%]	SMILES	also measured
37	O=C(CCCCc1ccccc1O)CCc1ccc(O)c(O)c1 [Compound 8a, 1-(3.4-Dihydroxyphenyl)-7-(2-hydroxyphenyl)heptan-3-one]	
106	O=C(/C=C/c1ccc(O)c(O)c1)CCCCn1ccc2ccc(O)cc21 [Compound 13b, (E)-1-(3.4-dihydroxyphenyl)-7-(6-hydroxy-1H-indol-1-yl)hept-1-en-3-one]	IC50 (LIMK1): 1390 nM
53	O=C(CCCCn1ccc2ccc(O)cc21)CCc1ccc(O)c(O)c1 [Compound 14b, 1-(3,4-Dihydroxyphenyl)-7-(6-hydroxy-1H-indol-1-yl)heptan-3-one]	
51	O=C(CCCCn1ccc2c(O)cccc21)CCc1ccc(O)c(O)c1 [Compound 14a, 1-(3,4-Dihydroxyphenyl)-7-(4-hydroxy-1H-indol-1-yl)heptan-3-one]	
34	O=C(CCCCc1cccc(O)c1)CCc1ccc(O)c(O)c1 [Compound 8b, 1-(3.4-Dihydroxyphenyl)-7-(3-hydroxyphenyl)heptan-3-one]	
106	O=C(/C=C/c1ccc(O)c(O)c1)CCCCc1ccc(O)cc1 [Compound 7c, 1-(3.4-Dihydroxyphenyl)-7-(4-hydroxyphenyl)hept-1-en-3-one]	IC50 (LIMK1): 1090 nM
89	O=C(/C=C/c1ccc(O)c(O)c1)CCCCc1ccccc1O [Compound 7a, 1-(3.4-Dihydroxyphenyl)-7-(2-hydroxyphenyl)hept-1-en-3-one]	IC50 (LIMK1): 1770 nM
102	O=C(/C=C/c1ccc(O)c(O)c1)CCCCc1cccc(O)c1 [Compound 7b, 1-(3.4-Dihydroxyphenyl)-7-(3-hydroxyphenyl)hept-1-en-3-one]	IC50 (LIMK1): 1110 nM
47	O=C(CCCCc1ccc(O)cc1)CCc1ccc(O)c(O)c1 [Compound 8c, 1-(3.4-Dihydroxyphenyl)-7-(4-hydroxyphenyl)heptan-3-one]	
